How the values were obtained:
[1] = target: T1, human FXR alpha ligand binding domain (Homo sapiens, UniProt Q96RI1); assay: FRET activity assay (ligand mediated cofactor peptide interaction, LANCE); type: biochemical; conditions: GST-FXR-LBD / biotinylated SRC-1 peptide (676-700), read-out: F EC50
T1 construct: made in house; host or cells: E. coli BL21(DE3), vector pDEST15
T1 sequence (Q96RI1 187-472 isoform Q96RI1-2): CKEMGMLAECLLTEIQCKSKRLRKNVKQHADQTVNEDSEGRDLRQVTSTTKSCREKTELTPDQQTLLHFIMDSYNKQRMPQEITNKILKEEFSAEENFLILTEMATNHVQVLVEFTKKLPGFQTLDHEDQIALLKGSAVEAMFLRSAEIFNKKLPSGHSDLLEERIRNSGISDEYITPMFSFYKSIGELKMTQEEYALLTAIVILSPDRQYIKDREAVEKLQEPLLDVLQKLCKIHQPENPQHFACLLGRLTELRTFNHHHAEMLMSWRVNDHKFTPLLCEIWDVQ
In short: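 GST-tagged FXR LBD (aa 187–472, E. coli-expressed) at 20–60 ng/well with 200–600 nM biotinylated SRC-1 peptide (676–700), streptavidin-APC and Eu anti-GST in Tris pH 7.5 buffer, 1% DMSO, equilibrated 1 h dark at room temperature. TR-FRET read as 665/615 nm ratio; agonists raise signal above basal.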

[2] = target: T2, FXR ligand binding domain (Homo sapiens, UniProt Q96RI1); assay: Mammalian One Hybrid (M1H) assay, Gal4 promoter driven transactivation in HEK293 cells; type: cell-based; conditions: Gal4-FXR-LBD luciferase reporter, 16 h
T2 construct: expressed in transfected cells; host or cells: HEK293 cells, transiently transfected with pCMV-BD-FXR-LBD, pFR-Luc and pRL-CMV
T2 sequence (Q96RI1 187-472 isoform Q96RI1-2): T1 sequence (Q96RI1 187-472 isoform Q96RI1-2)
In short: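 HEK293 cells were transiently co-transfected with Gal4-DBD fused to the human FXR LBD (aa 187-472, NM_005123), a 5×GAL4-site firefly luciferase reporter and CMV-Renilla control. Compounds were added 2-4 h post-transfection (vehicle ≤0.1%) in charcoal/dextran-stripped FBS medium for 16 h. Firefly and Renilla luciferase were read sequentially, in triplicate.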

Row | Structure (SMILES) | EC50 [1] | EC50 [2]
1 | OCc1ccc(F)c([C@]2(O)CC[C@@H](OCc3c(-c4c(Cl)cccc4Cl)noc3C3CC3)CC2)c1 [Example 9-7, (1s,4s)-4-((5-Cyclopropyl-3-(2,6-dichlorophenyl)isoxazol-4-yl)methoxy)-1-(2-fluoro-5-(hydroxymethyl)phenyl)cyclohexanol] | 110 nM | 150 nM
2 | O=C(O)c1cc(F)c2nc([C@]3(O)[C@@H]4CC[C@H]3C[C@H](OCc3c(-c5c(Cl)cccc5Cl)noc3C3CC3)C4)sc2c1 [Example 11-27, 2-((1R,3s,5S,8r)-3-((5-cyclopropyl-3-(2,6-dichlorophenyl)isoxazol-4-yl)methoxy)-8-hydroxybicyclo[3.2.1]octan-8-yl)-4-fluorobenzo[d]thiazole-6-carboxylic acid] | 3.8 nM | 1 nM
3 | O=C(O)c1ccc2nc([C@]3(O)CC[C@@H](OCc4c(-c5c(C(F)F)cccc5C(F)F)noc4C4CC4)CC3)sc2c1 [Example 11-18, 2-((1s,4s)-4-((3-(2,6-Bis(difluoromethyl)phenyl)-5-cyclopropylisoxazol-4-yl)methoxy)-1-hydroxycyclohexyl)benzo[d]thiazole-6-carboxylic acid] | 350 nM | 170 nM
4 | OCc1ccc([C@]2(O)CC[C@@H](OCc3c(-c4c(Cl)cccc4Cl)noc3C3CC3)CC2)c(F)c1 [Example 9-6, (1s,4s)-4-((5-Cyclopropyl-3-(2,6-dichlorophenyl)isoxazol-4-yl)methoxy)-1-(2-fluoro-4-(hydroxymethyl)phenyl)cyclohexanol] | 220 nM | 320 nM
5 | O=C(O)Cc1ccc([C@]2(O)CC[C@@H](OCc3c(-c4c(Cl)cccc4Cl)noc3C3CC3)CC2)c(F)c1 [Example 11-8, 2-(4-((1s,4s)-4-((5-Cyclopropyl-3-(2,6-dichlorophenyl)isoxazol-4-yl)methoxy)-1-hydroxycyclohexyl)-3-fluorophenyl)acetic acid] | 8000 nM | > 3000 nM
6 | O=C(O)c1cc(F)c2nc([C@]3(O)[C@@H]4CC[C@H]3C[C@H](OCc3c(-c5ccccc5OC(F)F)noc3C3CC3)C4)sc2c1 [Example 11-28, 2-((1R,3s,5S,8r)-3-((5-Cyclopropyl-3-(2-(difluoromethoxy)phenyl)isoxazol-4-yl)methoxy)-8-hydroxybicyclo[3.2.1]octan-8-yl)-4-fluorobenzo[d]thiazole-6-carboxylic acid] | 9.7 nM | 17 nM

Second part, the molecule after the results:

Row | EC50 [1] | EC50 [2] | Structure (SMILES)
7 | 15 nM | 15 nM | O[C@@]1(c2nc3ccc(CN4CCOCC4)cc3s2)[C@@H]2CC[C@H]1C[C@H](OCc1c(-c3c(Cl)cccc3Cl)noc1C1CC1)C2 [Example 43, (1R,3s,5S,8r)-3-((5-Cyclopropyl-3-(2,6-dichlorophenyl)isoxazol-4-yl)methoxy)-8-(6-(morpholinomethyl)benzo[d]thiazol-2-yl)bicyclo[3.2.1]octan-8-ol]
8 | 3.9 nM | 140 nM | O=C(O)c1cc(F)c2nc([C@]3(O)[C@@H]4CC[C@H]3C[C@H](OCc3c(-c5c(Cl)c[n+]([O-])cc5Cl)noc3C3CC3)C4)sc2c1 [Example 22, 4-(4-((((1R,3s,5S,8r)-8-(6-Carboxy-4-fluorobenzo[d]thiazol-2-yl)-8-hydroxybicyclo[3.2.1]octan-3-yl)oxy)methyl)-5-cyclopropylisoxazol-3-yl)-3,5-dichloropyridine 1-oxide]
9 | 23 nM | 290 nM | CC(C)(O)c1onc(-c2c(Cl)cccc2Cl)c1CO[C@@H]1C[C@H]2CC[C@@H](C1)[C@]2(O)c1nc2c(F)cc(C(=O)O)cc2s1 [Example 11-56, 2-((1R,3s,5S,8r)-3-((3-(2,6-Dichlorophenyl)-5-(2-hydroxypropan-2-yl)isoxazol-4-yl)methoxy)-8-hydroxybicyclo[3.2.1]octan-8-yl)-4-fluorobenzo[d]thiazole-6-carboxylic acid]

Source: patent US9751874B2, “Hydroxy containing FXR (NR1H4) modulating compounds” (Gilead Sciences, Inc., priority 2014, dated 2017)
